Data as given in ChEMBL document CHEMBL3603734, “Design and biological evaluation of novel quinolone-based metronidazole derivatives as potent Cu(2+) mediated DNA-targeting antibacterial agents” (Bioorg Med Chem Lett, 2015).
Values after ≈ are worked out from the molar mass of the structure shown. Active and inactive are the calls of the source. The rule behind the calls is not given here.

Experiments:
[1] = tested on: Escherichia coli; assay: Antibacterial activity against Escherichia coli JM109 after 24 hrs by microbroth dilution method; format: functional; conditions: JM109, 24 h
[2] = tested on: Bacillus; assay: Antibacterial activity against Bacillus proteus ATCC 13315 after 24 hrs by microbroth dilution method; format: functional; conditions: ATCC 13315, 24 h
[3] = tested on: Pseudomonas aeruginosa; assay: Antibacterial activity against Pseudomonas aeruginosa ATCC 27853 after 24 hrs by microbroth dilution method; format: functional; conditions: ATCC 27853, 24 h
[4] = tested on: Salmonella enterica; assay: Antibacterial activity against Salmonella enterica ATCC 14028 after 24 hrs by microbroth dilution method; format: functional; conditions: ATCC 14028, 24 h
[5] = tested on: Staphylococcus aureus; assay: Antibacterial activity against methicillin-resistant Staphylococcus aureus N315 after 24 hrs by microbroth dilution method; format: functional; conditions: N315, 24 h
[6] = tested on: Staphylococcus aureus; assay: Antibacterial activity against Staphylococcus aureus ATCC 25923 after 24 hrs by microbroth dilution method; format: functional; conditions: ATCC 25923, 24 h
[7] = tested on: Bacillus spizizenii; assay: Antibacterial activity against Bacillus subtilis ATCC 6633 after 24 hrs by microbroth dilution method; format: functional; conditions: ATCC 6633, 24 h
[8] = tested on: Micrococcus luteus; assay: Antibacterial activity against Micrococcus luteus ATCC 4698 after 24 hrs by microbroth dilution method; format: functional; conditions: NCTC 2665, 24 h
[9] = tested on: Cyberlindnera jadinii; assay: Antifungal activity against Candida utilis ATCC 9950 after 24 hrs by microbroth dilution method; format: functional; conditions: Williopsis jadinii, ATCC 9950, 24 h
[10] = tested on: Aspergillus flavus; assay: Antifungal activity against Aspergillus flavus ATCC 204304 after 24 hrs by microbroth dilution method; format: functional; conditions: ATCC 204304, 24 h
[11] = tested on: Saccharomyces cerevisiae; assay: Antifungal activity against Saccharomyces cerevisiae ATCC 9763 after 24 hrs by microbroth dilution method; format: functional; conditions: ATCC 9763, 24 h
[12] = tested on: Candida albicans; assay: Antifungal activity against Candida albicans ATCC 10231 after 24 hrs by microbroth dilution method; format: functional; conditions: ATCC 10231, 24 h
[13] = tested on: Pichia norvegensis; assay: Antifungal activity against Candida mycoderma ATCC 9888 after 24 hrs by microbroth dilution method; format: functional; conditions: ATCC 9888, 24 h
[14] = Cytotoxicity against HEK293 cells assessed as inhibition of cell proliferation at 10^-2 umol/L after 72 hrs by MTT assay relative to control; format: cell-based; conditions: human
[15] = Cytotoxicity against HEK293 cells assessed as inhibition of cell proliferation at 3 x 10^-2 umol/L after 72 hrs by MTT assay relative to control; format: cell-based; conditions: human
[16] = Cytotoxicity against HEK293 cells assessed as inhibition of cell proliferation at 10^-1 umol/L after 72 hrs by MTT assay relative to control; format: cell-based; conditions: human
[17] = Cytotoxicity against HEK293 cells assessed as inhibition of cell proliferation at 3 x 10^-1 umol/L after 72 hrs by MTT assay relative to control; format: cell-based; conditions: human
[18] = Cytotoxicity against HEK293 cells assessed as inhibition of cell proliferation at 1 umol/L after 72 hrs by MTT assay relative to control; format: cell-based; conditions: human
[19] = Cytotoxicity against HEK293 cells assessed as inhibition of cell proliferation at 3 umol/L after 72 hrs by MTT assay relative to control; format: cell-based; conditions: human
[20] = Cytotoxicity against HEK293 cells assessed as inhibition of cell proliferation at 10 umol/L after 72 hrs by MTT assay relative to control; format: cell-based; conditions: human
[21] = Cytotoxicity against HEK293 cells assessed as inhibition of cell proliferation at 30 umol/L after 72 hrs by MTT assay relative to control; format: cell-based; conditions: human
[22] = Cytotoxicity against HEK293 cells assessed as inhibition of cell proliferation at 10^2 umol/L after 72 hrs by MTT assay relative to control; format: cell-based; conditions: human
[23] = Cytotoxicity against HEK293 cells assessed as inhibition of cell proliferation at 3 x 10^2 umol/L after 72 hrs by MTT assay relative to control; format: cell-based; conditions: human
[24] = Cytotoxicity against MEF assessed as inhibition of cell proliferation at 10^-2 umol/L after 72 hrs by MTT assay relative to control; format: cell-based; conditions: mouse, MEF cells
[25] = Cytotoxicity against MEF assessed as inhibition of cell proliferation at 3 x 10^-2 umol/L after 72 hrs by MTT assay relative to control; format: cell-based; conditions: mouse, MEF cells
[26] = Cytotoxicity against MEF assessed as inhibition of cell proliferation at 10^-1 umol/L after 72 hrs by MTT assay relative to control; format: cell-based; conditions: mouse, MEF cells
[27] = Cytotoxicity against MEF assessed as inhibition of cell proliferation at 3 x 10^-1 umol/L after 72 hrs by MTT assay relative to control; format: cell-based; conditions: mouse, MEF cells
[28] = Cytotoxicity against MEF assessed as inhibition of cell proliferation at 1 umol/L after 72 hrs by MTT assay relative to control; format: cell-based; conditions: mouse, MEF cells
[29] = Cytotoxicity against MEF assessed as inhibition of cell proliferation at 3 umol/L after 72 hrs by MTT assay relative to control; format: cell-based; conditions: mouse, MEF cells
[30] = Cytotoxicity against MEF assessed as inhibition of cell proliferation at 10 umol/L after 72 hrs by MTT assay relative to control; format: cell-based; conditions: mouse, MEF cells
[31] = Cytotoxicity against MEF assessed as inhibition of cell proliferation at 30 umol/L after 72 hrs by MTT assay relative to control; format: cell-based; conditions: mouse, MEF cells
[32] = Cytotoxicity against MEF assessed as inhibition of cell proliferation at 10^2 umol/L after 72 hrs by MTT assay relative to control; format: cell-based; conditions: mouse, MEF cells
[33] = Cytotoxicity against MEF assessed as inhibition of cell proliferation at 3 x 10^2 umol/L after 72 hrs by MTT assay relative to control; format: cell-based; conditions: mouse, MEF cells
[34] = Cytotoxicity against mouse C2C12 cells assessed as inhibition of cell proliferation at 10^-2 umol/L after 72 hrs by MTT assay relative to control; format: cell-based
[35] = Cytotoxicity against mouse C2C12 cells assessed as inhibition of cell proliferation at 3 x 10^-2 umol/L after 72 hrs by MTT assay relative to control; format: cell-based
[36] = Cytotoxicity against mouse C2C12 cells assessed as inhibition of cell proliferation at 10^-1 umol/L after 72 hrs by MTT assay relative to control; format: cell-based
[37] = Cytotoxicity against mouse C2C12 cells assessed as inhibition of cell proliferation at 3 x 10^-1 umol/L after 72 hrs by MTT assay relative to control; format: cell-based
[38] = Cytotoxicity against mouse C2C12 cells assessed as inhibition of cell proliferation at 1 umol/L after 72 hrs by MTT assay relative to control; format: cell-based
[39] = Cytotoxicity against mouse C2C12 cells assessed as inhibition of cell proliferation at 3 umol/L after 72 hrs by MTT assay relative to control; format: cell-based
[40] = Cytotoxicity against mouse C2C12 cells assessed as inhibition of cell proliferation at 10 umol/L after 72 hrs by MTT assay relative to control; format: cell-based
[41] = Cytotoxicity against mouse C2C12 cells assessed as inhibition of cell proliferation at 30 umol/L after 72 hrs by MTT assay relative to control; format: cell-based
[42] = Cytotoxicity against mouse C2C12 cells assessed as inhibition of cell proliferation at 10^2 umol/L after 72 hrs by MTT assay relative to control; format: cell-based
[43] = Cytotoxicity against mouse C2C12 cells assessed as inhibition of cell proliferation at 3 x 10^2 umol/L after 72 hrs by MTT assay relative to control; format: cell-based
[44] = tested on: HEK293; assay: Cytotoxicity against HEK293 cells assessed as inhibition of cell proliferation after 72 hrs by MTT assay; format: cell-based; conditions: Homo sapiens, HEK293, 72 h
[45] = tested on: MEF; assay: Cytotoxicity against MEF assessed as inhibition of cell proliferation after 72 hrs by MTT assay; format: cell-based; conditions: Mus musculus
[46] = tested on: C2C12; assay: Cytotoxicity against mouse C2C12 cells assessed as inhibition of cell proliferation after 72 hrs by MTT assay; format: cell-based; conditions: C2C12, 72 h
[47] = Ionization constant, pKa of the compound by UV spectroscopic analysis; format: physicochemical
[48] = tested on: Pseudomonas aeruginosa; assay: Binding affinity to Pseudomonas aeruginosa DNA up to 1.4 x 10^-5 mol/L by UV-vis absorption spectra analysis
[49] = tested on: Pseudomonas aeruginosa; assay: Binding affinity to Pseudomonas aeruginosa DNA by fluorescence spectroscopic analysis
[50] = tested on: Pseudomonas aeruginosa; assay: Binding affinity to Cu2+ assessed as 2:1 compound-metal complex formation at 6 x 10^-6 mol/L by fluorescence spectroscopic analysis
[51] = tested on: Pseudomonas aeruginosa; assay: Binding affinity to Pseudomonas aeruginosa DNA assessed as 1:1 compound-DNA complex formation at 6 x 10^-6 mol/L by fluorescence spectroscopic analysis in presence of Cu2+
[52] = tested on: Pseudomonas aeruginosa; assay: Binding affinity to Pseudomonas aeruginosa DNA assessed as Stem-Volmer quenching constant by fluorescence spectroscopic analysis in presence of KI

## Cc1ncc([N+](=O)[O-])n1CC(O)CNC1CCN(c2c(F)cc3c(=O)c(C(=O)O)cn(C4CC4)c3c2Cl)C1 (configuration not stated)
[1]
  MIC: 2 µg/mL (≈ 3.64 µM)
[2]
  MIC: 0.25 µg/mL (≈ 0.455 µM)
[3]
  MIC: 0.25 µg/mL (≈ 0.455 µM)
[4]
  MIC: 0.5 µg/mL (≈ 0.911 µM)
[5]
  MIC: 0.25 µg/mL (≈ 0.455 µM)
[6]
  MIC: 0.5 µg/mL (≈ 0.911 µM)
[7]
  MIC: 0.25 µg/mL (≈ 0.455 µM)
[8]
  MIC: 0.25 µg/mL (≈ 0.455 µM)
[9]
  MIC: 2 µg/mL (≈ 3.64 µM)
[10]
  MIC: 4 µg/mL (≈ 7.29 µM)
[11]
  MIC: 8 µg/mL (≈ 14.6 µM)
[12]
  MIC: 16 µg/mL (≈ 29.1 µM)
[13]
  MIC: 8 µg/mL (≈ 14.6 µM)
[14]
  inhibition at 72 h, 0.01 umol/L: 0.1%
[15]
  inhibition at 72 h, 0.03 umol/L: 1.5%
[16]
  inhibition at 72 h, 0.1 umol/L: 0.9%
[17]
  inhibition at 72 h, 0.3 umol/L: 4.1%
[18]
  inhibition at 72 h, 1 µM: 5.3%
[19]
  inhibition at 72 h, 3 µM: 13%
[20]
  inhibition at 72 h, 10 µM: 21.8%
[21]
  inhibition at 72 h, 30 µM: 25.7%
[22]
  inhibition at 72 h, 100 umol/L: 35.8%
[23]
  inhibition at 72 h, 300 umol/L: 57.9%
[24]
  inhibition at 72 h, 0.01 umol/L: 0%
[25]
  inhibition at 72 h, 0.03 umol/L: 0%
[26]
  inhibition at 72 h, 0.1 umol/L: 0%
[27]
  inhibition at 72 h, 0.3 umol/L: 0%
[28]
  inhibition at 72 h, 1 µM: 0%
[29]
  inhibition at 72 h, 3 µM: 8.4%
[30]
  inhibition at 72 h, 10 µM: 22.7%
[31]
  inhibition at 72 h, 30 µM: 39.9%
[32]
  inhibition at 72 h, 100 umol/L: 51.7%
[33]
  inhibition at 72 h, 300 umol/L: 58.1%
[34]
  inhibition at 72 h, 0.01 umol/L: 0%
[35]
  inhibition at 72 h, 0.03 umol/L: 0%
[36]
  inhibition at 72 h, 0.1 umol/L: 0%
[37]
  inhibition at 72 h, 0.3 umol/L: 0.3%
[38]
  inhibition at 72 h, 1 µM: 0.7%
[39]
  inhibition at 72 h, 3 µM: 4%
[40]
  inhibition at 72 h, 10 µM: 10.3%
[41]
  inhibition at 72 h, 30 µM: 22.4%
[42]
  inhibition at 72 h, 100 umol/L: 58.2%
[43]
  inhibition at 72 h, 300 umol/L: 65.5%
[44]
  IC50: 126 µg/mL (≈ 230 µM)
[45]
  IC50: 60 µg/mL (≈ 109 µM)
[46]
  IC50: 57 µg/mL (≈ 104 µM)
[47]
  pKa: 6.48
[48]
  Activity: Active
[49]
  Activity: inactive
[50]
  Activity: Active
[51]
  Activity: Active
[52]
  KSV: 7.02 L/mol
